Key:
myeloperoxidase (MPO) [1] = biological target: T1, myeloperoxidase (MPO) (Homo sapiens (Human), UniProt P05164); assay: MPO peroxidation assay (Amplex Red assay); type: biochemical; conditions: potency range class
Outline: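 Human MPO at 200 pM with 40 nM H2O2 preincubated 10 min at room temperature with inhibitor in 100 mM KPi pH 7.4. Reaction started with Amplex Red mixture (200 μM Amplex Red, 10 mM H2O2); resorufin fluorescence (Ex 535, Em 590 nm) read kinetically for 15 min. IC50 fitted from slopes over 180-540 s.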

myeloperoxidase (MPO) [2] = biological target: T1, myeloperoxidase (MPO); assay: MPO chlorination assay (APF assay); type: biochemical; conditions: potency range class
Outline: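 Human MPO (200 pM) preincubated 10 min at room temperature with inhibitor and 120 mM NaCl in 100 mM KPi pH 7.4. Reaction started with APF plus 10 μM H2O2, and hypochlorite-generated fluorescein read kinetically (ex 485/em 535 nm) for 3 min. IC50 from linear-phase slopes fitted to a four-parameter equation.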

T1 sequence (P05164 49-745): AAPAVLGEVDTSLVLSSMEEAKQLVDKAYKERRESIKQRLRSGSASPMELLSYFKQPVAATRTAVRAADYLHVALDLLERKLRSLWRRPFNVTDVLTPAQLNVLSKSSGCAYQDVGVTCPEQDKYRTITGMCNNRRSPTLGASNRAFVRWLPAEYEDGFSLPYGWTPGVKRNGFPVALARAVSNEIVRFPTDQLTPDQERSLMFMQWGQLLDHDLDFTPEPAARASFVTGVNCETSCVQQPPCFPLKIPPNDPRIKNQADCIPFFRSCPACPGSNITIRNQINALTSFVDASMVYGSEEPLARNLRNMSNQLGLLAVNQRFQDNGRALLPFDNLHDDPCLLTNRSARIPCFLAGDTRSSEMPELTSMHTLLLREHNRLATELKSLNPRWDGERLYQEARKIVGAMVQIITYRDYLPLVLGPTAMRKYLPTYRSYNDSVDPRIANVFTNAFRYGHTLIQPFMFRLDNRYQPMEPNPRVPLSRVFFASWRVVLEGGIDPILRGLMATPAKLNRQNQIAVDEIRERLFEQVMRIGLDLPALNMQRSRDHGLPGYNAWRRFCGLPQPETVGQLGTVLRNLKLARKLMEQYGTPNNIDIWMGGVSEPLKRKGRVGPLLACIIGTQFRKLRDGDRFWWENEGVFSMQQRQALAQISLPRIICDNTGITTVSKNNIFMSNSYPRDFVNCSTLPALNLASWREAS

Row | Compound | IC50 (myeloperoxidase (MPO) [1]) [nM] | IC50 (myeloperoxidase (MPO) [2]) [nM]
1 | Nc1cc(Cc2cnn(Cc3cccc(C4(O)CCNCC4F)c3)c2)c2nn[nH]c2n1 (centres unmarked) [Example 213, 4-(3-{[4-({5-Amino-3H-[1,2,3]triazolo[4,5-b]pyridin-7-yl}methyl)-1H-pyrazol-1-yl]methyl}phenyl)-3-fluoropiperidin-4-ol] | 1 to 100 | 101 to 999
2 | Nc1cc(Cc2cnn(Cc3cccc(C4CCNCC4(F)F)c3)c2)c2nn[nH]c2n1 (centres unmarked) [Example 214, 7-[(1-{[3-(3,3-Difluoropiperidin-4-yl)phenyl]methyl}-1H-pyrazol-4-yl)methyl]-3H-[1,2,3]triazolo[4,5-b]pyridin-5-amine] | 1 to 100 | 101 to 999
3 | Nc1cc(Cc2cnn(Cc3ccccc3C3CCNCC3)c2)c2nn[nH]c2n1 [Example 215, 7-[(1-{[2-(Piperidin-4-yl)phenyl]methyl}-1H-pyrazol-4-yl)methyl]-3H-[1,2,3]triazolo[4,5-b]pyridin-5-amine] | 1 to 100 | 101 to 999
4 | Nc1cc(Cc2cnn(Cc3cccc(C4CCNCC4F)c3)c2)c2nn[nH]c2n1 (centres unmarked) [Example 216, 7-[(1-{[3-(3-Fluoropiperidin-4-yl)phenyl]methyl}-1H-pyrazol-4-yl)methyl]-3H-[1,2,3]triazolo[4,5-b]pyridin-5-amine] | 1 to 100 | 1 to 100
5 | Nc1cc(Cc2cnn(Cc3cccc(N4CCNCC4)c3)c2)c2nn[nH]c2n1 [Example 217, 7-[(1-{[3-(Piperazin-1-yl)phenyl]methyl}-1H-pyrazol-4-yl)methyl]-3H-[1,2,3]triazolo[4,5-b]pyridin-5-amine] | 1 to 100 | 101 to 999
6 | Nc1cc(Cc2cnn(Cc3cccc(N4CCNC(c5cccc(Cl)c5)C4)c3)c2)c2nn[nH]c2n1 (centres unmarked) [Example 218, 7-{[1-({3-[3-(3-Chlorophenyl)piperazin-1-yl]phenyl}methyl)-1H-pyrazol-4-yl]methyl}-3H-[1,2,3]triazolo[4,5-b]pyridin-5-amine] | 101 to 999 | 1 to 100
7 | Nc1cc(Cc2cnn(Cc3cccc(N4CCNC(c5ccccc5)C4)c3)c2)c2nn[nH]c2n1 (centres unmarked) [Example 219, 7-[(1-{[3-(3-Phenylpiperazin-1-yl)phenyl]methyl}-1H-pyrazol-4-yl)methyl]-3H-[1,2,3]triazolo[4,5-b]pyridin-5-amine] | 101 to 999 | 1 to 100
8 | Nc1cc(Cc2cnn(Cc3cccc(N4CCN[C@@H](COCc5ccccc5)C4)c3)c2)c2nn[nH]c2n1 [Example 220, 7-{[1-({3-[(3R)-3-[(Benzyloxy)methyl]piperazin-1-yl]phenyl}methyl)-1H-pyrazol-4-yl]methyl}-3H-[1,2,3]triazolo[4,5-b]pyridin-5-amine] | 101 to 999 | 1 to 100
9 | C[C@@H]1CN(c2cccc(Cn3cc(Cc4cc(N)nc5[nH]nnc45)cn3)c2)C[C@H](C)N1 [Example 221, 7-{[1-({3-[cis-3,5-Dimethylpiperazin-1-yl]phenyl}methyl)-1H-pyrazol-4-yl]methyl}-3H-[1,2,3]triazolo[4,5-b]pyridin-5-amine] | 1 to 100 | 1 to 100
10 | Nc1cc(Cc2cnn(Cc3cccc(N4CCNC(C(F)(F)F)C4)c3)c2)c2nn[nH]c2n1 (centres unmarked) [Example 222, 7-{[1-({3-[3-(Trifluoromethyl)piperazin-1-yl]phenyl}methyl)-1H-pyrazol-4-yl]methyl}-3H-[1,2,3]triazolo[4,5-b]pyridin-5-amine] | 101 to 999 | 101 to 999
11 | Nc1cc(Cc2cnn(Cc3cccc(N4CCNC5(CCCCC5)C4)c3)c2)c2nn[nH]c2n1 [Example 223, 7-({1-[(3-{1,4-Diazaspiro[5.5]undecan-4-yl}phenyl)methyl]-1H-pyrazol-4-yl}methyl)-3H-[1,2,3]triazolo[4,5-b]pyridin-5-amine] | 101 to 999 | 1 to 100
12 | Nc1cc(Cc2cnn(Cc3cccc(N4C[C@@H]5C[C@H]4CN5)c3)c2)c2nn[nH]c2n1 [Example 224, 7-{[1-({3-[(1S,4S)-2,5-Diazabicyclo[2.2.1]heptan-2-yl]phenyl}methyl)-1H-pyrazol-4-yl]methyl}-3H-[1,2,3]triazolo[4,5-b]pyridin-5-amine] | 101 to 999 | 1 to 100
13 | Nc1cc(Cc2cnn(Cc3cccc(N4CCNC5(CCC5)C4)c3)c2)c2nn[nH]c2n1 [Example 225, 7-({1-[(3-{5,8-Diazaspiro[3.5]nonan-8-yl}phenyl)methyl]-1H-pyrazol-4-yl}methyl)-3H-[1,2,3]triazolo[4,5-b]pyridin-5-amine] | 101 to 999 | 1 to 100
14 | C[C@@H]1CN(c2cc(Cn3cc(Cc4cc(N)nc5[nH]nnc45)cn3)ccc2F)C[C@H](C)N1 [Example 226, 7-{[1-({3-[cis-3,5-Dimethylpiperazin-1-yl]-4-fluorophenyl}methyl)-1H-pyrazol-4-yl]methyl}-3H-[1,2,3]triazolo[4,5-b]pyridin-5-amine] | 1 to 100 | 101 to 999
15 | Nc1cc(Cc2cnn(Cc3cccc(N4CCNCC4Cc4ccccc4)c3)c2)c2nn[nH]c2n1 (centres unmarked) [Example 227, 7-[(1-{[3-(2-Benzylpiperazin-1-yl)phenyl]methyl}-1H-pyrazol-4-yl)methyl]-3H-[1,2,3]triazolo[4,5-b]pyridin-5-amine] | 101 to 999 | 101 to 999
16 | C[C@@H]1CN(c2cccc(Cn3cc(Cc4cc(N)nc5[nH]nnc45)cn3)c2)C[C@H](C)O1 [Example 228, 7-{[1-({3-[cis-2,6-Dimethylmorpholin-4-yl]phenyl}methyl)-1H-pyrazol-4-yl]methyl}-3H-[1,2,3]triazolo[4,5-b]pyridin-5-amine] | 101 to 999 | 101 to 999
17 | Nc1cc(Cc2cnn(Cc3cccc(N4CC5C(N)C5C4)c3)c2)c2nn[nH]c2n1 [Example 229, (1R,5S,6S)-3-(3-{[4-({5-Amino-3H-[1,2,3]triazolo[4,5-b]pyridin-7-yl}methyl)-1H-pyrazol-1-yl]methyl}phenyl)-3-azabicyclo[3.1.0]hexan-6-amine] | 101 to 999 | 1 to 100
18 | Nc1cc(Cc2cnn(Cc3cccc(Oc4cccc5c4CNC5)c3)c2)c2nn[nH]c2n1 [Example 231, 7-[(1-{[3-(2,3-Dihydro-1H-isoindol-4-yloxy)phenyl]methyl}-1H-pyrazol-4-yl)methyl]-3H-[1,2,3]triazolo[4,5-b]pyridin-5-amine] | 1 to 100 | 1 to 100
19 | COC(=O)CNCc1cccc(Oc2cccc(Cn3cc(Cc4cc(N)nc5[nH]nnc45)cn3)c2)c1 [Example 232, Methyl 2-({[3-(3-{[4-({5-amino-3H-[1,2,3]triazolo[4,5-b]pyridin-7-yl}methyl)-1H-pyrazol-1-yl]methyl}phenoxy)phenyl]methyl}amino)acetate] | 1 to 100 | 101 to 999
20 | Nc1cc(Cc2cnn(Cc3cccc(OCCC4CCc5ccccc54)c3)c2)c2nn[nH]c2n1 (centres unmarked) [Example 233, 7-{[1-({3-[2-(2,3-Dihydro-1H-inden-1-yl)ethoxy]phenyl}methyl)-1H-pyrazol-4-yl]methyl}-3H-[1,2,3]triazolo[4,5-b]pyridin-5-amine] | 101 to 999 | 101 to 999
21 | Nc1cc(Cc2cnn(Cc3cccc(OC4CCCNC4)c3)c2)c2nn[nH]c2n1 (centres unmarked) [Example 234, 7-[(1-{[3-(Piperidin-3-yloxy)phenyl]methyl}-1H-pyrazol-4-yl)methyl]-3H-[1,2,3]triazolo[4,5-b]pyridin-5-amine] | 1 to 100 | 1 to 100
22 | Nc1cc(Cc2cnn(Cc3cccc(OCC4CCc5ccccc54)c3)c2)c2nn[nH]c2n1 (centres unmarked) [Example 235, 7-[(1-{[3-(2,3-Dihydro-1H-inden-1-ylmethoxy)phenyl]methyl}-1H-pyrazol-4-yl)methyl]-3H-[1,2,3]triazolo[4,5-b]pyridin-5-amine] | 101 to 999 | 101 to 999
23 | Nc1cc(Cc2cnn(Cc3cccc(Oc4cccc(C5CCNCC5)c4)c3)c2)c2nn[nH]c2n1 [Example 236, 7-{[1-({3-[3-(Piperidin-4-yl)phenoxy]phenyl}methyl)-1H-pyrazol-4-yl]methyl}-3H-[1,2,3]triazolo[4,5-b]pyridin-5-amine] | 1 to 100 | 1 to 100
24 | Nc1cc(Cc2cnn(Cc3cccc(Oc4cccc5c4CNCC5)c3)c2)c2nn[nH]c2n1 [Example 237, 7-[(1-{[3-(1,2,3,4-Tetrahydroisoquinolin-8-yloxy)phenyl]methyl}-1H-pyrazol-4-yl)methyl]-3H-[1,2,3]triazolo[4,5-b]pyridin-5-amine] | 1 to 100 | 1 to 100
25 | Nc1cc(Cc2cnn(Cc3cccc(Oc4cccc(C5CCCN5)c4)c3)c2)c2nn[nH]c2n1 (centres unmarked) [Example 238, 7-{[1-({3-[3-(Pyrrolidin-2-yl)phenoxy]phenyl}methyl)-1H-pyrazol-4-yl]methyl}-3H-[1,2,3]triazolo[4,5-b]pyridin-5-amine] | 1 to 100 | 1 to 100
26 | Nc1cc(Cc2cnn(Cc3cccc(O[C@@H]4CCNC4)c3)c2)c2nn[nH]c2n1 [Example 239, 7-{[1-({3-[(3R)-Pyrrolidin-3-yloxy]phenyl}methyl)-1H-pyrazol-4-yl]methyl}-3H-[1,2,3]triazolo[4,5-b]pyridin-5-amine] | 1 to 100 | 1 to 100
27 | Nc1cc(Cc2cnn(Cc3cccc(O[C@H]4CCNC4)c3)c2)c2nn[nH]c2n1 [Example 240, 7-{[1-({3-[(3S)-Pyrrolidin-3-yloxy]phenyl}methyl)-1H-pyrazol-4-yl]methyl}-3H-[1,2,3]triazolo[4,5-b]pyridin-5-amine] | 1 to 100 | 1 to 100
28 | CN1CC[C@@H](Oc2cccc(Cn3cc(Cc4cc(N)nc5[nH]nnc45)cn3)c2)C1 [Example 241, 7-({1-[(3-{[(3R)-1-Methylpyrrolidin-3-yl]oxy}phenyl)methyl]-1H-pyrazol-4-yl}methyl)-3H-[1,2,3]triazolo[4,5-b]pyridin-5-amine] | 1 to 100 | 101 to 999

— patent US10407422B2, “Triazolopyridine inhibitors of myeloperoxidase” (priority 2015, dated 2019)
